Seven compounds from PubChem BioAssay (NCI) can be followed below.

Some test systems named below: A549 NSCLC; ACHN renal; CCRF-CEM leukemia; EKVX NSCLC; MDA-MB-231 breast; RPMI-8226 leukemia; SF-539 CNS; SK-MEL-28 melanoma; T-47D breast; TK-10 renal.
Common to all, as to assay: growth of human tumour cells (NCI), 48 h

Values joined by “and” are separate entries in the source; they are usually repeats but may differ in a detail not shown here. Equal values may be shown once.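 Protocol summary: plate cells (96-well), add compound at 5 concentrations, incubate 48 h, interpolate endpoints linearly. GI50: concentration for 50% inhibition of growth. TGI: concentration producing complete growth inhibition.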 Where only a bound is given, the exact number is not on record here.

Consider `O=c1[nH]c(=O)n(C2CC(O)C(COP(=O)(OCc3ccc([N+](=O)[O-])o3)N(CCCCCl)CC(O)CO)O2)cc1F` (centres undefined), for which the GI50 was less than 0.01 µM in the assay on A549 NSCLC; less than 0.0216 µM in the assay on ACHN renal; 0.0102 µM with CCRF-CEM leukemia; more than 28.2 µM in the assay with EKVX NSCLC; more than 100 µM in the assay with MDA-MB-231 breast; less than 0.01 µM in the assay on RPMI-8226 leukemia. In addition, the GI50 with SF-539 CNS is less than 0.0348 µM; with SK-MEL-28 melanoma it was more than 100 µM; in the assay on T-47D breast it was more than 21.4 µM; with TK-10 renal, 0.326 µM. For the same compound, the TGI in the assay with A549 NSCLC was more than 100 µM; with ACHN renal it was 12.6 µM; in the assay with CCRF-CEM leukemia, more than 100 µM; in the assay with EKVX NSCLC it was more than 100 µM; in the assay on MDA-MB-231 breast it was more than 100 µM; in the assay with RPMI-8226 leukemia it was more than 49.8 µM. For the same compound, the TGI with SK-MEL-28 melanoma is more than 100 µM; in the assay with T-47D breast it was more than 100 µM; with TK-10 renal, more than 87.7 µM.
`C=CC(=O)Nc1cccc(Oc2nc(Nc3ccc(N4CCN(C)CC4)cc3)nc3ccsc23)c1`: the GI50 in the assay with A549 NSCLC was 3.47 µM and 3.71 µM; with ACHN renal, 1.07 µM; in the assay with CCRF-CEM leukemia, 2.6 µM; with EKVX NSCLC, 1.55 µM and 2.39 µM; in the assay with MDA-MB-231 breast, 2.25 µM and 2.24 µM; in the assay with RPMI-8226 leukemia, 2.01 µM and 1.96 µM. Moreover, the GI50 in the assay on SF-539 CNS is 1.62 µM and 1.75 µM; in the assay with SK-MEL-28 melanoma, 1.87 µM and 1.89 µM; in the assay with T-47D breast, 9.72 µM and 5.29 µM; in the assay with TK-10 renal, 0.398 µM and 0.6 µM. Further, the TGI is > 10 µM and 17.6 µM in the assay with A549 NSCLC; 2.51 µM with ACHN renal; 9.88 µM with CCRF-CEM leukemia; > 10 µM and 16.7 µM with EKVX NSCLC; 6.44 µM and 5.78 µM in the assay on MDA-MB-231 breast; 4.91 µM and 4.62 µM in the assay on RPMI-8226 leukemia. The TGI in the assay with SF-539 CNS was 3.02 µM and 3.23 µM; in the assay with SK-MEL-28 melanoma, 3.49 µM and 3.71 µM; in the assay on T-47D breast it was > 10 µM and 27 µM; in the assay on TK-10 renal it was 2.56 µM and 4.04 µM.
For `CN1C(=O)N(C)C2C1NN=c1s/c(=C\c3ccc(C(F)(F)F)cc3)c(=O)n12` (centres undefined), the GI50 with A549 NSCLC is 1.45 µM; in the assay with ACHN renal, 2.08 µM; in the assay with CCRF-CEM leukemia, 0.955 µM; in the assay on EKVX NSCLC, 4.17 µM; in the assay on MDA-MB-231 breast, 2.29 µM; in the assay with RPMI-8226 leukemia, 1.65 µM. Besides, the GI50 was 0.983 µM in the assay on SF-539 CNS, 10.2 µM in the assay with SK-MEL-28 melanoma, 1.72 µM in the assay with T-47D breast and 4.06 µM in the assay on TK-10 renal. Also, the TGI was more than 100 µM in the assay with A549 NSCLC; 38.5 µM in the assay on ACHN renal; more than 100 µM in the assay with CCRF-CEM leukemia; more than 100 µM in the assay with EKVX NSCLC; 14 µM with MDA-MB-231 breast; more than 100 µM with RPMI-8226 leukemia. The TGI was 6.26 µM in the assay on SF-539 CNS, more than 100 µM in the assay with SK-MEL-28 melanoma, more than 100 µM in the assay on T-47D breast and 75.9 µM in the assay on TK-10 renal.
In the case of `CCCCCCCCCCCCCCCCCC1=NCCN1CCOC1=C(Cl)C(=O)c2ccccc2C1=O`, the GI50 was 4.48 µM in the assay with A549 NSCLC; 1.58 µM in the assay with ACHN renal; 0.527 µM with CCRF-CEM leukemia; 1.46 µM with EKVX NSCLC; 2.05 µM in the assay on MDA-MB-231 breast; 2.17 µM in the assay on RPMI-8226 leukemia. Moreover, the GI50 in the assay with SF-539 CNS is 1.83 µM; in the assay on SK-MEL-28 melanoma it was 3.31 µM; in the assay with T-47D breast it was 1.86 µM; in the assay with TK-10 renal, 2.19 µM. For the same compound, the TGI in the assay on A549 NSCLC was determined as 22.9 µM; in the assay with ACHN renal it was 3.01 µM; in the assay with CCRF-CEM leukemia, 7.17 µM; in the assay with EKVX NSCLC it was 3.32 µM; in the assay with MDA-MB-231 breast, 5.03 µM; in the assay on RPMI-8226 leukemia it was 5.28 µM. The TGI in the assay with SF-539 CNS was found to be 3.78 µM; in the assay on SK-MEL-28 melanoma, 9.05 µM; in the assay with T-47D breast, 4.43 µM; in the assay with TK-10 renal it was 3.76 µM.
As to `COc1cccc(OC(=O)c2ccc(C(F)(F)F)nc2Nc2cc(Cl)ccc2C)c1`, the GI50 was 6.1 µM in the assay on A549 NSCLC; 15.6 µM in the assay with ACHN renal; 2.12 µM in the assay with CCRF-CEM leukemia; 6.6 µM in the assay on EKVX NSCLC; 2.76 µM with MDA-MB-231 breast; 4.2 µM with RPMI-8226 leukemia. Moreover, the GI50 is 8.75 µM in the assay on SF-539 CNS, 9.26 µM in the assay on SK-MEL-28 melanoma, 2.82 µM in the assay with T-47D breast and 30.7 µM with TK-10 renal. In addition, the TGI with A549 NSCLC is more than 100 µM; with ACHN renal it was more than 100 µM; in the assay on CCRF-CEM leukemia, 5.13 µM; with EKVX NSCLC, 39.3 µM; with MDA-MB-231 breast, 15.7 µM; in the assay on RPMI-8226 leukemia it was 23.2 µM. In addition, the TGI in the assay on SF-539 CNS was 32 µM; with SK-MEL-28 melanoma, more than 100 µM; in the assay with T-47D breast it was more than 100 µM; with TK-10 renal it was 92 µM.
On to `COC1C=COC2(C)Oc3c(C)c(O)c4c(c3C2=O)/C(=N/C2CCC(O)OC2C)C=C(NC(=O)/C(C)=C\C(=O)C2CC2C(O)C(C)C(O)C(C)C(OC(C)=O)C1C)C4=O` (centres undefined), for which the TGI in the assay on A549 NSCLC came out at 11.4 µM; with ACHN renal, 6.68 µM; in the assay with CCRF-CEM leukemia, 10.9 µM; with EKVX NSCLC it was 8.75 µM; with MDA-MB-231 breast it was 5.69 µM; with RPMI-8226 leukemia, 5.74 µM. Also, the TGI in the assay on SF-539 CNS was determined as 5.34 µM; with SK-MEL-28 melanoma, 4.32 µM; in the assay on T-47D breast, 8.61 µM; with TK-10 renal, 7.25 µM.
With `O=C(OCc1ccc2ccccc2n1)c1cn(C2CC2)c2cc(N3CCN(Cc4ccc5ccccc5n4)CC3)c(F)cc2c1=O`, the GI50 with A549 NSCLC was 98.2 µM; in the assay on ACHN renal, more than 72.4 µM; in the assay with CCRF-CEM leukemia it was more than 100 µM; in the assay with EKVX NSCLC, 29.6 µM; in the assay with MDA-MB-231 breast, more than 46.9 µM; in the assay on RPMI-8226 leukemia, more than 36.3 µM. Further, the GI50 was 21.2 µM in the assay on SF-539 CNS, 35.4 µM in the assay with SK-MEL-28 melanoma, 12.9 µM in the assay with T-47D breast and 31.9 µM in the assay on TK-10 renal. The TGI was more than 100 µM with A549 NSCLC; more than 100 µM in the assay on ACHN renal; more than 100 µM in the assay with CCRF-CEM leukemia; more than 100 µM in the assay with EKVX NSCLC; more than 84 µM in the assay on MDA-MB-231 breast; more than 64.2 µM in the assay on RPMI-8226 leukemia. For the same compound, the TGI with SF-539 CNS was 58 µM; in the assay with SK-MEL-28 melanoma, more than 100 µM; with T-47D breast, more than 100 µM; with TK-10 renal, more than 74.6 µM.
